Columns and labels:
rat FAAH = biological target: T1, rat FAAH (Rattus norvegicus, UniProt P97612); assay: Rat Fatty Acid Amide Hydrolase (FAAH) assay, rat brain homogenate, [3H]-anandamide; format: biochemical; settings: 3 separate experiments, each in duplicate
T1 construct: from tissue; host or cells: male Sprague Dawley rat brain, total homogenate
T1 sequence (P97612 1-579): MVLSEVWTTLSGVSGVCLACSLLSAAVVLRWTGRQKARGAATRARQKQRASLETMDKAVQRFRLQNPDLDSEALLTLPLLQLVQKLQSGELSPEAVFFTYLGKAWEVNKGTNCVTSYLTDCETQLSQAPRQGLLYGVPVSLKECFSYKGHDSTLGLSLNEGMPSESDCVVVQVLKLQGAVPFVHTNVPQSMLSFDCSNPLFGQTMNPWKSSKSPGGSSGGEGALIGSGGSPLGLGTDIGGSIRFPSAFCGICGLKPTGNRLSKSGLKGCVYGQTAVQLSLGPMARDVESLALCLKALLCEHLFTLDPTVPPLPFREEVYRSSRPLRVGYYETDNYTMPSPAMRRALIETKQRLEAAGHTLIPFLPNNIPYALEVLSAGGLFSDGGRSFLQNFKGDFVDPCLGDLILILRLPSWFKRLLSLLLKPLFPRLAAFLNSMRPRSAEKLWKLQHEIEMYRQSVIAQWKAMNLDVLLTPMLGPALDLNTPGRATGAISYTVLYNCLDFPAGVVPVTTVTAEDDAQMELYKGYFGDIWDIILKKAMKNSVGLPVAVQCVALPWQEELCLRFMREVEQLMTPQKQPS
Procedure: Rat Fatty Acid Amide Hydrolase (FAAH) Assay
Male Sprague Dawley rat brains were homogenized in a potter in 20 mM Tris-HCl pH7.4, 0.32M sucrose, protein concentration was measured and samples aliquot stored at −80° C. until use.
FAAH activity was measured using 50 μg of total rat brain homogenate pre-incubated for 10 minutes at 37° C. in 445.5 μL of assay buffer (50 mM Tris-HCl pH7.4, 0.05% Fatty acid-free BSA) with 4.5 μL of inhibitor at appropriate concentration in DMSO, or DMSO alone to measure FAAH total activity. The blank (no activity sample) was prepared with 445.5 μL of assay buffer and 4.5 μL of DMSO without the 50 μg of total rat brain homogenate.
After 10 minutes of pre-incubation, the reaction was started by the addition of 50 μL of substrate for 30 min at 37° C. The substrate is prepared in assay buffer in order to achieve the final concentration of 1 μM Arachidonoyl-ethanolamide (N.90050, Cayman Chemical) and 0.6 nM Anandamide [ethanolamine-1-^3H] (American Radiolabeled Chemicals Inc., ART.0626, 1 mCi/ml, specific activity 60 Ci/mmol).
The reaction was stopped by with the addition of cold 1:1 CHCl3/Methanol. After 10 minutes of centrifugation (845×g at 4° C.) 600 μL of the aqueous phase was transferred into scintillation vials previously filled with 3 mL of scintillation fluid (ULTIMA GOLD, Cat. 6013329, Perkin Elmer Inc.).
Radioactivity was measured by liquid scintillation counting (Microbeta2 Lumijet, Perkin Elmer Inc.).
(§1) EC50 or IC50 values (concentrations causing half-maximal response or inhibition of control agonist response) were determined by non-linear regression analysis of the Log [concentration]/response curves generated with mean replicate values using a four parameter Hill equation curve fitting with GraphPad Prism 5 (GraphPad Software Inc., CA—USA).

human FAAH-1 = biological target: T2, human FAAH-1 (Homo sapiens, UniProt O00519); assay: Human recombinant Fatty Acid Amide Hydrolase-1 (FAAH-1) fluorescent assay, Hek293-hFAAH-1 membranes; format: biochemical; settings: 3 separate experiments, each in triplicate
T2 construct: expressed in transfected cells; host or cells: Hek293 cells stably transfected with human FAAH-1; membrane preparation
T2 sequence (O00519 1-579): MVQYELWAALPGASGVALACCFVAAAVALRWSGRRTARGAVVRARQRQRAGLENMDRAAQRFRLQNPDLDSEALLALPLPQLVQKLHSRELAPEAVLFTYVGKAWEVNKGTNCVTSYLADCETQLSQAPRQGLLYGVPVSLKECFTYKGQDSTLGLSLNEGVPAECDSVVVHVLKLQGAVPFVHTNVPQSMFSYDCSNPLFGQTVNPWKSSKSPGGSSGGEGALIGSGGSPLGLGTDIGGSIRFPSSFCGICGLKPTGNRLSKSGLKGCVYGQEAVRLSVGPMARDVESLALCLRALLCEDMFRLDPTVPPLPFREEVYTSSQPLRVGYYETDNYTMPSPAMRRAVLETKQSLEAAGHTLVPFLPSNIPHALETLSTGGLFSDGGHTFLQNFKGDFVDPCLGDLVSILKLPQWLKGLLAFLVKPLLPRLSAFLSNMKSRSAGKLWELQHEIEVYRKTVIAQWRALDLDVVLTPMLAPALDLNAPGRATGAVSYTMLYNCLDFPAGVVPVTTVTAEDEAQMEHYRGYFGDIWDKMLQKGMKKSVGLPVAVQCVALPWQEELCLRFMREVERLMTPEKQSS
Procedure: Human Recombinant Fatty Acid Amide Hydrolase-1 (FAAH-1) Fluorescent Assay
Hek293 cells stably transfected with human FAAH-1 were maintained in DMEM containing 10% FBS, 1% pen/strep and 500 μg/mL G418 to maintain selective pressure. Cells were scraped off with cold PBS1× pH7.4 from plates and collected by centrifugation (500 g, 10 minutes, 4° C.); cells pellets were re-suspended in homogenizing buffer (20 mM Tris-HCl pH7.4, 0.32M sucrose), disrupted by sonication (10 pulses, 5 times) and centrifuged at 800×g for 15 minutes at 4° C.; the resultant supernatants collected were then centrifuged at 105,000×g for 1 hr at 4° C. and membranes pellets were re-suspended in PBS1× pH7.4.
Protein concentration was measured and samples aliquot stored at −80° C. until use.
The blank (no activity) was prepared using 180 μL of assay buffer without Hek293-hFAAH-1 membrane preparation and 10 μL of DMSO.
After 50 minutes of pre-incubation of compounds with the enzyme at 37° C., the reaction was started by the addition of 10 μL of substrate (AMC Arachidonyl Amide, N.10005098, Cayman Chemical) for 30 min at 37° C. The substrate is prepared in Ethanol in order to achieve the final concentration of 2 μM.
Fluorescence was detected with Tecan Infinite M200 nanoquant (Tecan Group Ltd.) at an excitation wavelength 350 nm and an emission wavelength 460 nm.
as §1

human-D3R = biological target: T3, human-D3R (Homo sapiens, UniProt P35462); assay: D3 Dopamine Receptor (D3dR) cellular assay, cAMP HTRF functional assay in human-D3R expressing CHO cells; format: cell-based
T3 construct: expressed in transfected cells; host or cells: CHO cell line stably transfected with human D3R
T3 sequence (P35462 whole entry): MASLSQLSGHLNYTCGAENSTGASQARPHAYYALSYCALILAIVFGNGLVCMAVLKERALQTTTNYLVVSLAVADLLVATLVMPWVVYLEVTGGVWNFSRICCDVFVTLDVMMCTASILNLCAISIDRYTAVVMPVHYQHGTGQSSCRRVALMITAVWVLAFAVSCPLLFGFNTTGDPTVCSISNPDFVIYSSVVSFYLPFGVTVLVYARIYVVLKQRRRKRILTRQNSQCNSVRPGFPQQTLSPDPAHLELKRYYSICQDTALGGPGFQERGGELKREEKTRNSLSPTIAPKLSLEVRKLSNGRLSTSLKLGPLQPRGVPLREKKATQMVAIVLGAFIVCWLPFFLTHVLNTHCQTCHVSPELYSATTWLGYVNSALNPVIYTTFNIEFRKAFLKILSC
Procedure: D3 Dopamine Receptor (D3dR) Cellular Assay
Activity on D3R was tested with a cAMP functional assay on a stably transfected human-D3R expressing CHO cell line. On the day of the assay performance the cells were washed twice with PBS (w/o calcium and magnesium) and dislodged with a cell scraper, transferred to PBS, centrifuged and re-suspended in HBSS (w/o calcium and magnesium), supplemented with 1 g/L glucose and […] IBMX. The cell suspension was seeded on a 384 well plate (Greiner) and the assay was performed by adding compounds either test compounds alone (for agonist activity), or with test compound after a pre-incubation with 10 nM Dopamine as a stimulant (for antagonistic activity). After incubation (30 min at RT) the cell stimulation was stopped by adding the detecting reagents (cAMP-XL665 and anti-cAMP cryptate) diluted in lysis buffer. The signal was quantified by Homogenous Time-Resolved Fluorescence (HTRF) on a Perkin Elmer Envision plate reader after one hour of incubation at RT.
as §1

SMILES | IC50 (rat FAAH) [nM] | IC50 (human FAAH-1) [nM] | Emax (human-D3R; CHO, 0.5 h, % of 300 nM Dopamine response, read-out: Dopamine D3 % of Agonist Activity) [%] | EC50 (human-D3R; cAMP assay, CHO human-D3R, one experiment in duplicate) [nM]
COc1ccccc1N1CCN(CCCCNC(=O)Oc2cccc(-c3cccc(C(N)=O)c3)c2)CC1 [Example 1, [3-(3-carbamoylphenyl)phenyl] N-[4-[4-(2-methoxyphenyl)piperazin-1-yl]butyl] carbamate] | 0.94 | – | – | –
NC(=O)c1cccc(-c2cccc(OC(=O)NCCCCN3CCN(c4cccc(Cl)c4Cl)CC3)c2)c1 [Example 2, [3-(3-carbamoylphenyl)phenyl] N-[4-[4-(2,3-dichlorophenyl)piperazin-1-yl]butyl] carbamate] | 0.3 | – | – | –
NC(=O)c1cccc(-c2cccc(OC(=O)NCCCN3CCN(c4cccc(Cl)c4Cl)CC3)c2)c1 [Example 3, [3-(3-carbamoylphenyl)phenyl] N-[3-[4-(2,3-dichlorophenyl)piperazin-1-yl]propyl]carbamate] | 0.11 | – | – | –
NC(=O)c1cccc(-c2cccc(OC(=O)NCCCN3CCN(c4ccccc4)CC3)c2)c1 [Example 4, [3-(3-carbamoylphenyl)phenyl] N-[3-(4-phenylpiperazin-1-yl)propyl]carbamate] | 0.32 | – | – | –
O=C(NCCCN1CCN(c2ccccc2)CC1)Oc1cccc(-c2ccccc2)c1 [Example 5, (3-phenylphenyl) N-[3-(4-phenylpiperazin-1-yl)propyl]carbamate] | 3 | 3.4 | 89.7 | 13
NC(=O)c1cccc(-c2ccc(OC(=O)NCCCN3CCN(c4cccc(Cl)c4Cl)CC3)cc2)c1 [Example 6, [4-(3-carbamoylphenyl)phenyl] N-[3-[4-(2,3-dichlorophenyl)piperazin-1-yl]propyl]carbamate] | 1.5 | – | – | –
NC(=O)c1cccc(-c2ccc(OC(=O)NCCCCN3CCN(c4cccc(Cl)c4Cl)CC3)cc2)c1 [Example 7, [4-(3-carbamoylphenyl)phenyl] N-[4-[4-(2,3-dichlorophenyl)piperazin-1-yl]butyl]carbamate] | 0.72 | – | – | –
